Data reported in PubChem BioAssay (NCI).
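Where inhibition never reached the appropriate level, the endpoint shown equals the highest concentration tested. Otherwise, values were interpolated linearly from a five-concentration, 48-hour dose response in 96-well plates. TGI: total growth inhibition.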

What was measured:
Assay in all cases: inhibition of tumour cell growth, NCI panel, 48 h
OVCAR-5 ovarian = tested on: OVCAR-5 ovarian
NCI-H522 lung = tested on: NCI-H522 lung
NCI-H23 lung = tested on: NCI-H23 lung
HT29 colon = tested on: HT29 colon
A549 NSCLC = tested on: A549 NSCLC
IGROV1 ovarian = tested on: IGROV1 ovarian
HCT-116 colon = tested on: HCT-116 colon
SW-620 colon = tested on: SW-620 colon
SNB-19 CNS = tested on: SNB-19 CNS
HOP-92 NSCLC = tested on: HOP-92 NSCLC
SK-OV-3 ovarian = tested on: SK-OV-3 ovarian
T-47D breast = tested on: T-47D breast
COLO 205 colon = tested on: COLO 205 colon
MCF7 breast = tested on: MCF7 breast
HOP-62 NSCLC = tested on: HOP-62 NSCLC
TK-10 renal = tested on: TK-10 renal
HS 578T breast = tested on: HS 578T breast
PC-3 prostate = tested on: PC-3 prostate
KM12 colon = tested on: KM12 colon
HCT-15 colon = tested on: HCT-15 colon
M14 melanoma = tested on: M14 melanoma
DU-145 prostate = tested on: DU-145 prostate
SF-295 CNS = tested on: SF-295 CNS
MALME-3M melanoma = tested on: MALME-3M melanoma
SF-268 CNS = tested on: SF-268 CNS
SK-MEL-5 melanoma = tested on: SK-MEL-5 melanoma
HCC-2998 colon = tested on: HCC-2998 colon
SK-MEL-28 melanoma = tested on: SK-MEL-28 melanoma
NCI-H226 lung = tested on: NCI-H226 lung
BT-549 breast = tested on: BT-549 breast
CCRF-CEM leukemia = tested on: CCRF-CEM leukemia
RPMI-8226 leukemia = tested on: RPMI-8226 leukemia
HL-60(TB) leukemia = tested on: HL-60(TB) leukemia
OVCAR-8 ovarian = tested on: OVCAR-8 ovarian
NCI-H460 lung = tested on: NCI-H460 lung
LOX IMVI melanoma = tested on: LOX IMVI melanoma
NCI/ADR-RES ovarian = tested on: NCI/ADR-RES ovarian
MDA-N = tested on: MDA-N
MDA-MB-231 breast = tested on: MDA-MB-231 breast
U251 CNS = tested on: U251 CNS
SF-539 CNS = tested on: SF-539 CNS
MOLT-4 leukemia = tested on: MOLT-4 leukemia
K-562 leukemia = tested on: K-562 leukemia
UACC-62 melanoma = tested on: UACC-62 melanoma
OVCAR-4 ovarian = tested on: OVCAR-4 ovarian
CAKI-1 renal = tested on: CAKI-1 renal
A498 renal = tested on: A498 renal
UO-31 renal = tested on: UO-31 renal
UACC-257 melanoma = tested on: UACC-257 melanoma
786-0 renal = tested on: 786-0 renal
RXF 393 renal = tested on: RXF 393 renal
SR leukemia = tested on: SR leukemia
ACHN renal = tested on: ACHN renal
SN12C renal = tested on: SN12C renal
MDA-MB-435 = tested on: MDA-MB-435
OVCAR-3 ovarian = tested on: OVCAR-3 ovarian
SNB-75 CNS = tested on: SNB-75 CNS
SK-MEL-2 melanoma = tested on: SK-MEL-2 melanoma
EKVX NSCLC = tested on: EKVX NSCLC

SMILES: Cc1ccc(NC2=N/C(=C/c3ccco3)C(Cl)=N2)cc1
- TGI (OVCAR-5 ovarian): > 100 µM
- TGI (NCI-H522 lung): > 100 µM
- TGI (NCI-H23 lung): > 100 µM
- TGI (HT29 colon): > 100 µM
- TGI (A549 NSCLC): > 100 µM
- TGI (IGROV1 ovarian): > 100 µM
- TGI (HCT-116 colon): > 100 µM
- TGI (SW-620 colon): > 100 µM
- TGI (SNB-19 CNS): > 100 µM
- TGI (HOP-92 NSCLC): > 100 µM
- TGI (SK-OV-3 ovarian): > 100 µM
- TGI (T-47D breast): > 100 µM
- TGI (COLO 205 colon): > 100 µM
- TGI (MCF7 breast): > 100 µM
- TGI (HOP-62 NSCLC): > 100 µM
- TGI (TK-10 renal): > 100 µM
- TGI (HS 578T breast): > 100 µM
- TGI (PC-3 prostate): > 100 µM
- TGI (KM12 colon): > 100 µM
- TGI (HCT-15 colon): > 100 µM
- TGI (M14 melanoma): > 100 µM
- TGI (DU-145 prostate): > 100 µM
- TGI (SF-295 CNS): > 100 µM
- TGI (MALME-3M melanoma): > 100 µM
- TGI (SF-268 CNS): > 100 µM
- TGI (SK-MEL-5 melanoma): > 100 µM
- TGI (HCC-2998 colon): > 49.7 µM
- TGI (SK-MEL-28 melanoma): > 100 µM
- TGI (NCI-H226 lung): > 100 µM
- TGI (BT-549 breast): > 100 µM
- TGI (CCRF-CEM leukemia): > 100 µM
- TGI (RPMI-8226 leukemia): > 100 µM
- TGI (HL-60(TB) leukemia): > 100 µM
- TGI (OVCAR-8 ovarian): > 100 µM
- TGI (NCI-H460 lung): > 100 µM
- TGI (LOX IMVI melanoma): > 100 µM
- TGI (NCI/ADR-RES ovarian): > 100 µM
- TGI (MDA-N): > 100 µM
- TGI (MDA-MB-231 breast): > 100 µM
- TGI (U251 CNS): > 100 µM
- TGI (SF-539 CNS): > 100 µM
- TGI (MOLT-4 leukemia): > 100 µM
- TGI (K-562 leukemia): > 100 µM
- TGI (UACC-62 melanoma): > 100 µM
- TGI (OVCAR-4 ovarian): > 100 µM
- TGI (CAKI-1 renal): > 100 µM
- TGI (A498 renal): > 100 µM
- TGI (UO-31 renal): > 100 µM
- TGI (UACC-257 melanoma): > 100 µM
- TGI (786-0 renal): > 100 µM
- TGI (RXF 393 renal): > 100 µM
- TGI (SR leukemia): > 100 µM
- TGI (ACHN renal): > 100 µM
- TGI (SN12C renal): > 100 µM
- TGI (MDA-MB-435): > 100 µM
- TGI (OVCAR-3 ovarian): > 100 µM
- TGI (SNB-75 CNS): > 100 µM
- TGI (SK-MEL-2 melanoma): > 100 µM
- TGI (EKVX NSCLC): > 100 µM
